Data: patent US9593363B2, “Methods and models for assessing anti-aging benefits of agents” (The Procter & Gamble Company, priority 2012, dated 2017)

Tests used:
Type in all cases: cell-based
[1] = system: retinoid metabolism gene panel; assay: ex vivo human skin tissue culture, PCR fold change of retinoid gene panel; settings: for regulation of CYP26A1, ALDH1A2, RDH10, RARRES1 and LRAT: by Day 7 compared to Day 5, single donor, tRA media, retinol propionate topical (FIG. 6C); for regulation of CRABP2, RARG and CEBPA / regulation of Cyp26B1: day 7, 37° C., tRA media applied, retinol propionate topically applied (FIG. 6C)
Experimental: FIGS. 6A, 6B, and 6C provide heat maps illustrating the fold change for the gene panel of FIG. 3 over a 7 day time course following media dosing with the tRA and retinol propionate. The cells in FIGS. 6A, 6B, and 6C are cross-hatched in the same way as the cells in FIG. 4 (i.e., see the legend provided in FIG. 4). The tRA was media applied and the retinol propionate was topically applied to the ex-vivo tissue samples (N=6 per material), which were incubated at 37° C. and 50% relative humidity. At the end of 48 hours, 5 days and 7 days, two 4 mm punch biopsies were removed from each of the tissue samples for RNA isolation followed by PCR analysis. […] These genes are all important in retinoic acid-mediated regulation of human skin growth and differentiation.
Referring again to FIGS. 6A, 6B, and 6C, the fold change data from a single donor over a 7 day time course is shown for media application of tRA and topical application of retinol propionate.
(§1) Skin preparation involved preparation of media in advance of the arrival of skin (3× media including 500 ml DMEM plus 15 ml of antibiotic and antimycotics; the 3× referred to 3-fold levels of antibiotics/antimycotics used for the initial hour of incubation; 1× Media: 500 ml DMEM plus 5 ml of antibiotic and antimycotics). The skin arrived with the dermis (fat) side down on sterile DMEM soaked gauze in a sterile culture dish. The culture dish was taped shut and in a biohazard zip-lock baggie on an ice pack in a secondary container.
(§2) On arrival, the skin was removed from the bag and soaked in 3×DMEM media and stored at 4° C. for 1 hour. After 1 hour, the skin was removed from the 3×DMEM and rinsed with sterile 1×PBS. The skin was placed in a clean culture dish containing gauze soaked with 1×DMEM. The sample was put in culture the same day as arrival; though the sample may be stored overnight at 4° C. if desired.
(§3) In preparation for culture, the following were performed on the skin tissue. On a cutting mat, the skin tissue was positioned such that the epidermis was down and the fat was exposed. The fat was removed with a disposable scalpel by carefully grasping one corner of the skin with sterile serrated forceps and scraping the fat away with the blade held at a 45 degree angle to the skin. After the fat was removed, the surgical edges were cut off with a scalpel using a scraper as a straight edge guide and to hold the skin in place. Using the scraper as a guide, the skin was cut into 1.25 cm wide strips using a ruler (such as the one on optionally provided on the cutting mat) to measure the width. The strip was rinsed in a 100 mm culture dish containing 1×PBS. The strips were cut into 1.25 cm squares and placed in a 100 mm culture dish onto 1×DMEM soaked gauze until they were put into culture 30 minutes later (with time points of 15 minutes, 30 minutes, 45 minutes, or an hour being used in various non-limiting examples).
(§4) Culturing involved putting 2.5 ml of media or treatment into each well of a 6-well tissue plate, adding one Millicell® brand culture insert to each well, and putting 100 μl of 1×DMEM on the center of each insert membrane. The skin sample squares were selected randomly and placed into each of the inserts (one skin sample per insert), on top of the media on the membrane. The plates were stored at 33° C. (though an additional non-limiting example would be 37° C. depending on the experiment endpoint). As a control, baseline tissue measurements were collected from excess waste (cryogenics were used for snap freezing). Baseline biopsy collection involved from each tissue piece; one 4 mm punch for MTT; one 4 mm punch (snap frozen in OCT) for fresh histology; One 4 mm punch was fixed in 10% formalin for paraffin embedding and two 4 mm punches (snap frozen in liquid nitrogen) for PCR.
Culture and treatment of the model comprised replicates of n=6 (though replicates of additional quantities may be used such as n=5).

epidermal gene panel = assay: ex vivo human skin tissue culture, PCR fold change of epidermal gene panel vs untreated control; settings: 5 day time course, 33° C.; for relative fold change of epidermal gene panel (rank order): 70% relative humidity (FIG. 5A); for regulation of AQP3 / regulation of KRT10 and FLG: 70% relative humidity, tRA media applied, retinol and retinol propionate topically applied, N=6 (FIG. 5A)
Experimental: Referring to FIG. 5A, a bar graph illustrates the fold change (compared to an untreated control) for the epidermal gene panel of FIG. 3 following media dosing with trans-retinoic acid (tRA), retinol, or retinol propionate (RP) over a 5 day time course. […] The doses were applied over a 5 day time course during which tRA was media applied while retinol and retinol propionate were topically applied to the ex-vivo tissue samples (N=6 per material) incubated at 33° C. and 70% relative humidity. At the end of 5 days, two 4 mm punch biopsies were removed from each of the tissue samples for RNA isolation followed by PCR analysis.
The fold-increase/decrease in expression, versus an untreated control, was determined for the epidermal gene panel set forth in FIG. 3 for ex vivo tissue from a single donor over a 7 day time course incubated at 37° C. at a relative humidity of 55%. The test agents were applied topically.

dermal gene panel = assay: ex vivo human skin tissue culture, PCR fold change of dermal gene panel vs untreated control
Experimental: The culturing temperature can also affect the pattern and magnitude of the gene regulation in ex vivo tissue samples. Referring to FIGS. 9A and 9B, heat maps illustrate the fold changes for nine dermal genes for five different donor tissue samples incubated at 33° C. for 7 days and 50% relative humidity and five different donor tissue samples incubated at 37° C. for 7 days at 50% relative humidity. The tissue samples were treated with a media supplied dose of 20 ng/ml of TGFβ-1. […]
Referring to FIG. 18, an olive oil extract, an artichoke leaf extract, and a blend of these extracts were evaluated according to methods described herein. The cells in the table of FIG. 18 are cross-hatched in the same way as the cells in the table of FIG. 4 (i.e., see the legend provided in FIG. 4). The fold-increase/decrease in expression, versus an untreated control, was determined for the dermal gene panel set forth in FIG. 3 for ex vivo tissue from a single donor over a 7 day time course. The skin samples were incubated at a temperature of 37° C. and a relative humidity of 55%. The test agents were applied topically to the skin samples. […] This is another example of identifying actives that may synergistically provide anti-aging benefit.
as §1, §2, §3
as §4, with “Baseline biopsy collection involved from each tissue piece; one 4 mm punch for MTT; one 4 mm punch (snap frozen in OCT) for fresh histology; One 4 mm punch was fixed in 10% formalin for paraffin embedding and two 4 mm punches (snap frozen in liquid nitrogen) for PCR.” left out

TGFβ-2 and TGFβ-3 = assay: ex vivo human skin tissue culture, PCR fold change of TGFβ-2 and TGFβ-3; settings: media dosing, 33° C., 55% relative humidity, 4 and 7 days, N=6 (FIG. 4)
Experimental: FIG. 4 illustrates a heat map of the fold change of some of the genes from FIG. 3 following media dosing of ex vivo tissue samples (N=6 per material) incubated at 33° C. and 55% relative humidity with four materials over a 7 day time course. Cross-hatching is provided in some of the cells of the table in FIG. 4 to indicate statistically significant up-regulation (p value≦0.05 and p value≦0.1) and statistically significant down regulation p value≦0.05 and p value≦0.1). In addition to TGFβ-1, three exogenous materials believed to provide one or more in vivo, anti-aging skin benefits were tested. The three exogenous materials tested were a vitamin B3 compound (i.e., niacinamide), a peptide (i.e., PAL-KT brand peptide (palmitoyl-lysine-threonine)), and an olive oil extract (i.e., OLIVEM 460 brand olive oil extract). Niacinamide is believed to provide a number of cosmetic skin care benefits (see, e.g., Bissett el al. “Niacinamide: A B Vitamin that Improves Aging Facial Skin Appearance” and Draelos “Clinical Situations Conducive to Proactive Skin Health and Anti-Aging Improvement”). […]

[2] = 33° C., 7 days, 50% relative humidity, media 20 ng/ml, five donors (FIG. 9B)

| Compound | regulation of CYP26A1, ALDH1A2, RDH10, RARRES1 and LRAT [1] | regulation of CRABP2, RARG and CEBPA ([1]; 50% relative humidity) | regulation of Cyp26B1 ([1]; 50% relative humidity) | relative fold change of epidermal gene panel (rank order) (epidermal gene panel) | regulation of AQP3 (epidermal gene panel) | regulation of KRT10 and FLG (epidermal gene panel) | other results |
| --- | --- | --- | --- | --- | --- | --- | --- |
| CCC(=O)OC/C=C(C)/C=C/C=C(C)/C=C/C1=C(C)CCCC1(C)C [retinol propionate] | down-regulated with statistical significance | strongly up-regulate | strongly up-regulated | tRA>retinol>retinol propionate | up-regulated | significantly down-regulated | – |
| CC1=C(/C=C/C(C)=C/C=C/C(C)=C/CO)C(C)(C)CCC1 [retinol] | – | – | – | tRA>retinol>retinol propionate | up-regulated | significantly down-regulated | – |
| CC1=C(/C=C/C(C)=C/C=C/C(C)=C/C(=O)O)C(C)(C)CCC1 [tRA, trans-retinoic acid] | down-regulated with statistical significance | strongly up-regulate | strongly up-regulated | tRA>retinol>retinol propionate | up-regulated | significantly down-regulated | response of retinoid metabolism genes, tRA compared with RP ([1]; 37° C., 50% relative humidity, 48 hours to 7 days (FIGS. 6A-6C)): stronger response |
| TGFβ-1: endogenous gene stimulative compound, known regulator of dermal matrix genes; used as positive control | – | – | – | – | – | – | regulation of ELN and LOXL2 (dermal gene panel; [2]): did not show statistically significant up-regulation; regulation of FN1, COL1A1 and COL3A1 (dermal gene panel; [2]): significantly up-regulated; statistically significant up-regulation of ELN and LOXL2 across a majority of donors (dermal gene panel; 37° C., 7 days, 50% relative humidity, media 20 ng/ml, five donors (FIG. 9A)): did at 37 °C; regulation of FN1, LOXL2, COL3A1, ELN and LOXL1 (dermal gene panel; 24 hrs, media application 20 ng/ml, single donor, 37° C., 50% relative humidity (FIG. 8A)): significantly regulated; number of statistically significant genes up-regulated at 37° C. versus 33° C. (dermal gene panel; 7 days, 50% relative humidity, media 20 ng/ml, nine dermal genes): increased dramatically; donor tissues with statistically significant up-regulation of at least FN1, COL1A1 and ELN (dermal gene panel; media 20 ng/ml, 11 days, 33° C., 70% relative humidity, eight donor tissues (FIG. 15)): 80%; time of most robust response of dermal genes (dermal gene panel; media application 20 ng/ml, single donor, 37° C., 50% relative humidity, 1 to 7 days (FIG. 8A)): between Day 5 and Day 7; regulation of FN1, COL1A1 and COL3A1 (dermal gene panel; media applied 20 ng/ml, single donor, time course 24 hrs to 7 days (FIG. 2)): increasingly up-regulated; response of dermal genes (dermal gene panel; media supplied (FIGS. 2, 4, 7 and 8)): strong, consistent, up-regulation response |
| palmitoyl-lysine-threonine [peptide] | – | – | – | – | – | – | regulation of TGFβ-2 and TGFβ-3 (TGFβ-2 and TGFβ-3): up-regulated |
